Source: PMC10102643, “A mass balance study of [^14C]SHR6390 (dalpiciclib), a selective and potent CDK4/6 inhibitor in humans” (Frontiers in Pharmacology, 2023)

Assay: Quantitative metabolite radioprofiling in pooled plasma, urine and stool (UHPLC-FC / HRMS)
Type: in vivo, human
Details: pooled 0–168 h stool
Experimental: The plasma sample (15 mL) after pooled was added 15 mL methanol and 15 mL acetonitrile and centrifugation (3,500 rpm, 10 min, 4°C). Extract the centrifuged solid with 7.5 mL water and 22.5 mL methanol acetonitrile (50:50, v: v). The first two extracted supernatants were combined and concentrated. The concentration of the substance is at 200 μL Acetonitrile water (20:80, v: v) was dissolved again and centrifuged again (3,600 rpm, 10 min, 4°C). Part of the supernatant was injected into the UHPLC-FC (Fraction collector) system (Thermo). The eluent from the UHPLC was collected into the Deepwell LumaPlate 96 (PerkinElmer) at the rate of 10 s per well within minutes. The total collection time is 35 min. The plates were dried by Integrated SpeedVac (Thermo), and the radiation value of each well were detected by a microplate reader (Sense Beta Hidex, Finland). Data were reconstructed to radio-chromatogram by Laura software (Lablogic, United Kingdom) to give the radio profiling of plasma.
The combined samples were centrifuged, concentrated by N2 and dissolved in a 200 μL mixture of 40 mL acetonitrile and 160 mL-water, and 120 μL was injected into the UHPLC-FC system (Thermo). Other operation steps are the same as those of plasma.
Add 6 mL methanol acetonitrile (50:50, v: v) to the combined fecal homogenate (2 g) sample. The mixture was then whirled (1 min) and centrifuged6 (3,500 rpm, 10 min, 4°C). […]

CC(=O)c1c(C)c2cnc(Nc3ccc(C(CCN)CCO)cn3)nc2n(C2CCCC2)c1=O (stereo not shown) [M464-2]
abundance in stool (in words): minor metabolites
